Patent publication US20240148714A1, “Triple Negative Breast Cancer Treatment Method” (Exelixis, Inc., priority 2016, published 2024)
“And” between values parts separate entries of the source, which are not always exact repeats. Identical values can stand only once.

Columns and labels:
[1] = Participant-reported pain questionnaire and analgesic use; format: in vivo, human
Description: (§1) Study Design and Treatment: As indicated, this was a single-arm, two-stage phase II study assessing the efficacy of cabozantinib monotherapy in patients with mTNBC. Treatment consisted of oral dosing of cabozantinib at 60 mg daily over a 21-day cycle. Patients underwent radiographic restaging at 6 weeks and every 9 weeks thereafter. Patients with complete or partial RECIST responses continued to receive study treatment, whereas those with progressive disease were taken off study. Dose reductions for toxicity occurred if patients experienced grade 3 or 4 neutropenia or thrombocytopenia, or nonhematologic adverse events. From the starting dose of 60 mg daily, doses were reduced as needed to 40 and 20 mg daily. For the purposes of determining the effect of cabozantinib treatment on pain and analgesic medication use, pain was assessed by a participant-reported questionnaire, and daily analgesic medication usage was recorded. These were completed at baseline and during week 3, 6, and every 6 weeks thereafter until the date of the participant's last follow-up visit.

[2] = tested on: metastatic TNBC; assay: Phase II study of cabozantinib in metastatic TNBC: objective response (RECIST 1.1), clinical benefit, PFS; format: in vivo, human
Description: Experimental design: In this single-arm, two-stage phase 2 study, patients with metastatic TNBC with measurable disease by RECIST and up to 3 lines of prior chemotherapy for metastatic disease received cabozantinib 60 mg daily on a 21-day cycle. Patients were restaged 6 weeks following treatment initiation and every 9 weeks thereafter. The primary endpoint was objective response rate (ORR). Predefined secondary endpoints included progression free survival (PFS) and toxicity. Here, we examined cellular biomarkers using flow cytometry in serial blood samples collected at days 0 (baseline/pre-treatment), 8, 22, 43, and 64 of cabozantinib treatment. Mixed effect models were used to evaluate the changes of biomarker levels over time from baseline to day 64. Wilcoxon signed rank test were used to evaluate whether the change of biomarker levels from baseline to day 8 were different by clinical benefit. Adjusted p-values controlling false discovery rate were used to adjust for multiple comparisons.
as §1
The primary endpoint was the activity of cabozantinib, as defined by objective response rate (ORR) in patients with mTNBC. Predefined secondary endpoints included progression-free survival (PFS), toxicity, and pain. Correlative studies included analysis of MET and phospho-MET expression in archival tumor tissue, and molecular and cellular biomarkers of cabozantinib. Cellular biomarkers were examined using flow cytometry in serial blood samples collected at days 0 (baseline/pre-treatment), 8, 22, 43, and 64 of cabozantinib treatment. Mixed effect models were used to evaluate the changes of biomarker levels over time from baseline to day 64. Wilcoxon signed rank test were used to evaluate whether the change of biomarker levels from baseline to day 8 were different by clinical benefit. Adjusted p-values controlling false discovery rate were used to adjust for multiple comparisons.
Statistical Analysis: This study used Simon optimal two-stage design to control type I error at 10% and have at least 90% power to detect the acceptable response rate. By study design, 13 participants were to be enrolled in the first stage. If there was at least 1 response, accrual was to continue to the second stage, where an additional 22 patients were to be enrolled. If there were at least 4 responses among the 35 total patients, the regimen was to be considered worthy of further study. With a true response rate of 5%, the chance that the regimen would be declared worthy of further study was 10%, and with a true response rate of 20%, the chance that the regimen would be declared worthy of further study was 90%.
Objective response was evaluated by using RECIST1.1. […] Objective response rate was reported with 95% confidence interval (CI) for the two stage designs. PFS and 95% CI were described using Kaplan-Meier methods. […]

COc1cc2nccc(Oc3ccc(NC(=O)C4(C(=O)Nc5ccc(F)cc5)CC4)cc3)c2cc1OC [cabozantinib]
patients reporting a decrease in pain since baseline ([1]; of 21 patients with pain at entry who completed a survey): 52% | patients with decreased pain who discontinued pain medications ([1]; of the eleven with decreased pain): 10 patients | clinical benefit rate (PR+SD) at 15 weeks ([2]; 60 mg daily, 35 patients): 34% | median PFS ([2]; 60 mg daily, 35 patients): 2.0 months | objective response rate (ORR) ([2]; 60 mg daily, 35 patients, as previously reported (ASCO 2015)): 11% | objective response rate (ORR) ([2]; 60 mg daily, 35 patients, confirmed PR, RECIST 1.1): 9% | time on treatment of individual patients with PR ([2]; 17 cycles and 8 cycles of protocol therapy): 11.7 months and 6.5 months | Best overall response: Not evaluated due to toxicity ([2]; 35 patients): 1 (3) n (%) | Best overall response: PD ([2]; 35 patients): 11 (31) n (%) | Best overall response: PR ([2]; 35 patients): 3 (9) n (%) | Best overall response: SD ([2]; 35 patients): 20 (57) n (%) | Best overall response: SD <15 weeks ([2]; 35 patients): 11 (31) n (%) | Best overall response: SD ≥15 weeks ([2]; 35 patients): 9 (26) n (%) | median PFS ([2]; high baseline sMET (>795 ng/mL median value)): 3.3 months | patients off treatment due to progressive disease ([2]; human, in vivo): 91% | patients with clinically progressive disease before protocol specified tumor assessment ([2]; included in PD): ^aIncluding 7 patients(20%) with clinically progressive disease before protocol specified tumor assessment. | median PFS ([2]; low baseline sMET (<795 ng/mL)): 1.3 months | patients who achieved PR ([2]; of 35 patients): 3 patients
